These results are taken from patent US9051311B2, “Sulfamide sodium channel inhibitors” (AMGEN INC., priority 2012, dated 2015).

For series [1], the target named is T1, Nav 1.7 (Homo sapiens (Human), UniProt Q15858). Briefly: Nav 1.7 IonWorks Quattro (IWQ) in vitro assay, population patch-clamp.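 Also: cells held at −110 mV for 3 s, then 26 pulses of 150 ms at 5 Hz, leak-corrected peak current, percent block measured before and after compound, 3–8 min exposure.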 Format: cell-based. As to conditions: 293 cells stably transfected with Nav 1.7; block at 26th pulse to −20 mV. In general terms: In patch-clamp work, channel activity is measured electrically.
T1 sequence (Q15858 whole entry): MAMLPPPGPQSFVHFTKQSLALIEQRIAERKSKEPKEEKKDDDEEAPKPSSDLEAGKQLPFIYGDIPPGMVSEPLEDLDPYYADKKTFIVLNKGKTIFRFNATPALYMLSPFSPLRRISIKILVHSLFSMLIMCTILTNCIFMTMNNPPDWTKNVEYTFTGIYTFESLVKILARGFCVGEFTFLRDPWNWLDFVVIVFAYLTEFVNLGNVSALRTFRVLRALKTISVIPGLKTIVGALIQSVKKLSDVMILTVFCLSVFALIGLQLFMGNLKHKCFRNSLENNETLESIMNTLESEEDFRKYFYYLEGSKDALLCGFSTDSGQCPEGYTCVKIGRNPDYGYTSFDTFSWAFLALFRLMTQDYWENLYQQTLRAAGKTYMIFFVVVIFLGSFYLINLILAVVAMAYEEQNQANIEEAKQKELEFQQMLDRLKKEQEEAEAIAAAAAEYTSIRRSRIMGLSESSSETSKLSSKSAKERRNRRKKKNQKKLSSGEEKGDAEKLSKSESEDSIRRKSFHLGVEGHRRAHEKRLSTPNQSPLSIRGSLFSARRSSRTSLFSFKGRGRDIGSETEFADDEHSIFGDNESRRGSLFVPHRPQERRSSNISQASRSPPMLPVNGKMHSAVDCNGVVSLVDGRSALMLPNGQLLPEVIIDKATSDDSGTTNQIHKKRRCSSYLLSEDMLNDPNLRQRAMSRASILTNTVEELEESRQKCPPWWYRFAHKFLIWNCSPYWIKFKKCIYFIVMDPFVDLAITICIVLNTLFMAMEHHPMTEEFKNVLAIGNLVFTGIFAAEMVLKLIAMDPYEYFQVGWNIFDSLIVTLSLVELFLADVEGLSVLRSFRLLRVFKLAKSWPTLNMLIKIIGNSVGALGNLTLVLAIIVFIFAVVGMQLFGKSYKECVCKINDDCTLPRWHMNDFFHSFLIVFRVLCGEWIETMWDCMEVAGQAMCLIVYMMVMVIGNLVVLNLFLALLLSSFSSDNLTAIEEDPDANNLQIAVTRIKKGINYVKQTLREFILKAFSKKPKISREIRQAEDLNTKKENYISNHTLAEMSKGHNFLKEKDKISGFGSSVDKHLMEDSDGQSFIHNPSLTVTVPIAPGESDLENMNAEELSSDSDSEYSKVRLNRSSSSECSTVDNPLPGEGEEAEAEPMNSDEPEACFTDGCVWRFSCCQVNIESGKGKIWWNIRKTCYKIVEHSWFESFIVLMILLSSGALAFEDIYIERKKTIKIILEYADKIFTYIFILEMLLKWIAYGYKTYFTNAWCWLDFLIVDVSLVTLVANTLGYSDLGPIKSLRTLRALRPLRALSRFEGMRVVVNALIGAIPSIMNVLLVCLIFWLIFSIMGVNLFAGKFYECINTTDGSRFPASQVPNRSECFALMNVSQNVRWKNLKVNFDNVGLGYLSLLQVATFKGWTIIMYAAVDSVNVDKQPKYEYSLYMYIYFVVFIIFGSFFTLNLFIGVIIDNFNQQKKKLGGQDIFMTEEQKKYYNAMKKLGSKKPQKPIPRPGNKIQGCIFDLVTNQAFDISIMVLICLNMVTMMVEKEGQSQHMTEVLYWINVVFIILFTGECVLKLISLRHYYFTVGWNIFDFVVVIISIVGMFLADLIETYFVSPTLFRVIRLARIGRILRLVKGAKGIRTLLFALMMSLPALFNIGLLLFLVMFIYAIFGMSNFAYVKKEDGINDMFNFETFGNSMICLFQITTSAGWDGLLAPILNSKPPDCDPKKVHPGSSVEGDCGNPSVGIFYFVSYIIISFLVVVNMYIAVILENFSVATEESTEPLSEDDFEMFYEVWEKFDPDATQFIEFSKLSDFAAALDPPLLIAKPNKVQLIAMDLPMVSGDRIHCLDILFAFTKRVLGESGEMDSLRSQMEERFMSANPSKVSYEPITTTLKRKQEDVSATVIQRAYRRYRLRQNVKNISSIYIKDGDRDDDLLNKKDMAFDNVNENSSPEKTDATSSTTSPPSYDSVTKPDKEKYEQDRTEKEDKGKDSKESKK
Experimental: (§1) Nav 1.7 and Nav 1.5 Ion Works Quattro (IWQ) In Vitro Assays
(§2) 293 cells stably transfected with either Nav 1.7 or with Nav 1.5 were recorded in population patch-clamp mode with the IonWorks® Quattro automated electrophysiology system in accordance with the manufacturer's specifications (Molecular Devices, LLC, Sunnyvale, Calif.). Sodium channel currents were measured in response to a train of depolarizations that induced successively greater inactivation.
(§3) Cells were held at −110 mV for three seconds (Nav 1.7) or half a second (Nav 1.5) from a holding voltage of −15 mV, then put through a series of 26 pulses of 150 msec duration to −20 mV at a frequency of 5 Hz. Cells were then left unclamped for a period of 3 to 8 minutes while a single concentration of test compound was added. Cells were then reclamped and put through the same voltage protocol. Current at the end of the 26th pulse to −20 mV was subtracted from the peak current evoked by the 26th pulse to −20 mV to correct for leak current. Percent block was calculated for each concentration in duplicate, and IC50 curves were fitted to percent block as a function of concentration.
In series [2] the target is T1, Nav 1.7. Briefly: Nav 1.7 in vitro PatchExpress (PX) assay, whole cell voltage clamp. The settings on record: 293 cells stably transfected with human Nav1.7; partially inactivated state (20 to 50% inactivation). In kind it is cell-based. On the procedure:
Nav 1.7 In Vitro PatchExpress (PX) Assay
293 cells stably transfected with human Nav1.7 were recorded in whole cell voltage clamp mode with the PatchXpress automated electrophysiology system (Molecular Devices, LLC, Sunnyvale, Calif.). Compound effects were measured on a partially inactivated state of the sodium channel. Cells were clamped to a holding potential yielding 20 to 50% inactivation. To elicit sodium current, channels were activated by pulsing to −10 mV for 20 msec. This voltage protocol was repeated at a rate of 0.1 Hz throughout the experiment. A single concentration of test compound was applied to cells for a duration of 3 minutes. Peak sodium current was measured at the end of the compound addition period to determine percent inhibition.

Series [3] addresses T2, Nav 1.5 (Homo sapiens (Human), UniProt Q14524). Briefly: Nav 1.5 IonWorks Quattro (IWQ) in vitro assay, population patch-clamp.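 Also: HEK293 cells stably expressing Nav1.5, sodium current at the 26th of 26 pulses to −20 mV (150 ms, 5 Hz) after compound versus before, leak-corrected, 3–8 min exposure.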 The settings on record: read-out: Nav 1.5 (IWQ) IC50; 293 cells stably transfected with Nav 1.5; block at 26th pulse to −20 mV.
Experimental: as §1, §2, §3
In series [4] the target is T2, Nav 1.5. The series is described as follows: cell-based.
Experimental: as §1, §2, §3

Structures can show the parent of a compound that is named as a salt.

T2 sequence (Q14524 whole entry): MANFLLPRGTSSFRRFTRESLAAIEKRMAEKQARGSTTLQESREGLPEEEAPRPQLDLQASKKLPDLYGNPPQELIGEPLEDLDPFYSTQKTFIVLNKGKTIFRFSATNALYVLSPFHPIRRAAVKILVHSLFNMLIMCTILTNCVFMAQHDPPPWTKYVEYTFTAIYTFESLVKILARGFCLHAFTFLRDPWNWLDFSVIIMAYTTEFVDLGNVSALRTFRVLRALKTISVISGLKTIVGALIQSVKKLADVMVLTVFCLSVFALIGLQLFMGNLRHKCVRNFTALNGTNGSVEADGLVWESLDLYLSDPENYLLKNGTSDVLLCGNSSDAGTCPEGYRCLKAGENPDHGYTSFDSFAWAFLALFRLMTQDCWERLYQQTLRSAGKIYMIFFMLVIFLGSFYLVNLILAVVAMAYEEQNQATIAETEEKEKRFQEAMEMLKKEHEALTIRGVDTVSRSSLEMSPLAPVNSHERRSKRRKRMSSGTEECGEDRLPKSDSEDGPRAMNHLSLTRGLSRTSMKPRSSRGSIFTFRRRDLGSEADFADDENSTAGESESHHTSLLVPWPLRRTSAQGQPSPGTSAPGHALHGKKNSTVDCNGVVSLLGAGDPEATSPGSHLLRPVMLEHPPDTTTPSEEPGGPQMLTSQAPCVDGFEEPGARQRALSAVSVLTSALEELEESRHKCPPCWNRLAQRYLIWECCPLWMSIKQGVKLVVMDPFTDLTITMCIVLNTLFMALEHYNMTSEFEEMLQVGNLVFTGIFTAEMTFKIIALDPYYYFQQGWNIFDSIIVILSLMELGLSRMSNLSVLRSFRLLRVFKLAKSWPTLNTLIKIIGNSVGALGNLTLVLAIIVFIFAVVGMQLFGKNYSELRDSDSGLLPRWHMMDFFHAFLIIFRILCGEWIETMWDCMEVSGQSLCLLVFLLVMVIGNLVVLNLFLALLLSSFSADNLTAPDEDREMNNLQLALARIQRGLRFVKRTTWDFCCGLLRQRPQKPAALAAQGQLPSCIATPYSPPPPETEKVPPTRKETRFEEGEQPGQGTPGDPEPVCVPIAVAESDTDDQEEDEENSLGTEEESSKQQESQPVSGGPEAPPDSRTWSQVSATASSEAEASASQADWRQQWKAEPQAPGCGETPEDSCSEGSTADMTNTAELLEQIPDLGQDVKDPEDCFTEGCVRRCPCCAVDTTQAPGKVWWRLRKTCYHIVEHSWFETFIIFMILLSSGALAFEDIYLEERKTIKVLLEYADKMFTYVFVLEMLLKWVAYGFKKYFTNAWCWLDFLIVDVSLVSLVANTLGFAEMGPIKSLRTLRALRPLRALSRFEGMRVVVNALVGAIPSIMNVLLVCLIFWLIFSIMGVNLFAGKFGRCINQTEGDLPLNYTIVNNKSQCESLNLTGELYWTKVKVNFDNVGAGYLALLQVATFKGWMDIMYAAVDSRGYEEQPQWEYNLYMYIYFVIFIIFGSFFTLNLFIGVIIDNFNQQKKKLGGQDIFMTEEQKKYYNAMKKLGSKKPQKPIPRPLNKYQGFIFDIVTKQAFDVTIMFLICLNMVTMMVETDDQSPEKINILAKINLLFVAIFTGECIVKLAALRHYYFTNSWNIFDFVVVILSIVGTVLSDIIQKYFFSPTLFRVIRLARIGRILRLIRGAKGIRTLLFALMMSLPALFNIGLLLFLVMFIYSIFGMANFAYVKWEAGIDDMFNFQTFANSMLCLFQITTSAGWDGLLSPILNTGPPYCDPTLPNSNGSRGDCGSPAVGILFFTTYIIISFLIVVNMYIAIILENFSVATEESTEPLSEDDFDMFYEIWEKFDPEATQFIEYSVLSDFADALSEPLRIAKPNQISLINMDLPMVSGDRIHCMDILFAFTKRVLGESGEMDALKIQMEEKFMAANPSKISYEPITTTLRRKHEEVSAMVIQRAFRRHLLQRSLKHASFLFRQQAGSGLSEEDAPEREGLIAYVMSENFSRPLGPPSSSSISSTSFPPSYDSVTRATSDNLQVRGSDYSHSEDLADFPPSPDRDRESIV

By IC50 is commonly meant the concentration needed to halve the response being measured. With `O=S(=O)(Nc1ncns1)N1CCc2c(cccc2-c2ccc(C(F)(F)F)cc2C2=CCNCC2)C1` [Example 6, 5-(2-(1,2,3,6-Tetrahydropyridin-4-yl)-4-(trifluoromethyl)phenyl)-N-(1,2,4-thiadiazol-5-yl)-3,4-dihydroisoquinoline-2(1H)-sulfonamide hydrochloride], the IC50 against Nav 1.7 [1] is 0.0221 µM; at Nav 1.7 [2] it was 0.03 µM; at Nav 1.5 [3] it was more than 10 µM.

As for `CC(C)(C)OC(=O)N1CC=C(c2cc(C(F)(F)F)ccc2-c2cccc3c2CCN(S(=O)(=O)Nc2ncns2)C3)CC1` [Example 5, tert-Butyl 4-(2-(2-(N-(1,2,4-thiadiazol-5-yl)sulfamoyl)-1,2,3,4-tetrahydroisoquinolin-5-yl)-5-(trifluoromethyl)phenyl)-5,6-dihydropyridine-1(2H)-carboxylate], the IC50 is 1.03 µM at Nav 1.7 [1], 1.7 µM against Nav 1.7 [2] and 5.63 µM on Nav 1.5 [3].

With `CC(C)(C)OC(=O)N1CCc2c(cccc2-c2cccc3c2CCN(S(=O)(=O)Nc2ncns2)C3)C1` [Example 58, tert-Butyl 2′-(N-(1,2,4-thiadiazol-5-yl)sulfamoyl)-1′,2′,3,3′,4,4′-hexahydro-[5,5′-biisoquinoline]-2(1H)-carboxylate], the figures for the IC50 at Nav 1.7 [1], on Nav 1.7 [2] and against Nav 1.5 [4] were 15.8 µM, 16.5 µM and more than 10 µM, respectively.

With `O=S(=O)(Nc1ncns1)N1CCc2c(cccc2-c2ccc(C(F)(F)F)cc2-c2ccncc2)C1` [Example 2, 5-(2-(Pyridin-4-yl)-4-(trifluoromethyl)phenyl)-N-(1,2,4-thiadiazol-5-yl)-3,4-dihydroisoquinoline-2(1H)-sulfonamide], the results for the IC50 on Nav 1.7 [1], at Nav 1.7 [2] and against Nav 1.5 [4] were 0.217 µM, 0.64 µM and more than 10 µM, respectively.

Regarding `COc1cc(C2CC2)ccc1-c1nccc2c1CCN(S(=O)(=O)Nc1ncns1)C2` [Example 47, 5-(4-Cyclopropyl-2-methoxyphenyl)-N-(1,2,4-thiadiazol-5-yl)-3,4-dihydro-2,6-naphthyridine-2(1H)-sulfonamide], the values for the IC50 on Nav 1.7 [1], on Nav 1.7 [2] and on Nav 1.5 [4] were 0.059 µM, 0.56 µM and more than 10 µM, respectively.

`O=S(=O)(Nc1ncns1)N1CCc2c(cccc2-c2ccc(Cl)cc2)C1` [Example 10]: the IC50 against Nav 1.7 [1] is 5.47 µM; at Nav 1.7 [2] it was 7.46 µM; at Nav 1.5 [4], more than 10 µM.

Regarding `O=S(=O)(Nc1ncns1)N1CCc2c(cccc2-c2ccc(Cl)cc2F)C1` [Example 11, 5-(4-Chloro-2-fluorophenyl)-N-(1,2,4-thiadiazol-5-yl)-3,4-dihydroisoquinoline-2(1H)-sulfonamide], the values for the IC50 against Nav 1.7 [1], against Nav 1.7 [2] and on Nav 1.5 [3] were 4.22 µM, 7.66 µM and more than 10 µM, respectively.

For `COc1cc(C(F)(F)F)ccc1-c1cccc2c1C(C)CN(S(=O)(=O)Nc1ncns1)C2` (racemic) [Example 48, 5-(2-Methoxy-4-(trifluoromethyl)phenyl)-4-methyl-N-(1,2,4-thiadiazol-5-yl)-3,4-dihydroisoquinoline-2(1H)-sulfonamide], the values for the IC50 at Nav 1.7 [1], at Nav 1.7 [2] and against Nav 1.5 [4] were 4.1 µM, 6.11 µM and 7.26 µM, respectively.

For `COc1ccc(-c2cccc3c2CCN(S(=O)(=O)Nc2ncns2)C3)c(OC)c1` [Example 26, 5-(2,4-Dimethoxyphenyl)-N-(1,2,4-thiadiazol-5-yl)-3,4-dihydroisoquinoline-2(1H)-sulfonamide], the figures for the IC50 at Nav 1.7 [1], on Nav 1.7 [2] and at Nav 1.5 [4] were 1.51 µM, 2.2 µM and more than 10 µM, respectively.

Take `Cn1nccc1-c1cc(C(F)(F)F)ccc1-c1cccc2c1CCN(S(=O)(=O)Nc1ncns1)C2` [Example 1, 5-(2-(1-Methyl-1H-pyrazol-5-yl)-4-(trifluoromethyl)phenyl)-N-(1,2,4-thiadiazol-5-yl)-3,4-dihydroisoquinoline-2(1H)-sulfonamide]: the results for the IC50 at Nav 1.7 [1], at Nav 1.7 [2] and at Nav 1.5 [4] were 0.0363 µM, 0.12 µM and more than 10 µM, respectively.

As to `COc1cc(C(F)(F)F)ccc1-c1cccc2c1CCN(S(=O)(=O)Nc1ncns1)C2` [Example 44, 5-(2-Methoxy-4-(trifluoromethyl)phenyl)-N-(1,2,4-thiadiazol-5-yl)-3,4-dihydroisoquinoline-2(1H)-sulfonamide], the results for the IC50 at Nav 1.7 [1], at Nav 1.7 [2] and on Nav 1.5 [4] were 0.135 µM, 0.26 µM and more than 10 µM, respectively.

In the case of `O=S(=O)(Nc1cnccn1)N1CCc2c(cccc2-c2ccc(C(F)(F)F)cc2C2=CCNCC2)C1` [Example 53, N-(Pyrazin-2-yl)-5-(2-(1,2,3,6-tetrahydropyridin-4-yl)-4-(trifluoromethyl)phenyl)-3,4-dihydroisoquinoline-2(1H)-sulfonamide hydrochloride], the results for the IC50 on Nav 1.7 [1] and on Nav 1.5 [3] were 10.5 µM and more than 10 µM, respectively.

`O=S(=O)(Nc1ncns1)N1CCc2c(cccc2-c2cccc3ccccc23)C1` [Example 24, 5-(Naphthalen-1-yl)-N-(1,2,4-thiadiazol-5-yl)-3,4-dihydroisoquinoline-2(1H)-sulfonamide]: the results for the IC50 on Nav 1.7 [1], against Nav 1.7 [2] and on Nav 1.5 [4] were 2.68 µM, 4.91 µM and more than 10 µM, respectively.

As to `C[N+]1(C)CC=C(c2cc(C(F)(F)F)ccc2-c2cccc3c2CCN(S(=O)(=O)Nc2ncns2)C3)CC1` [Example 14, 4-(2-(2-(N-(1,2,4-Thiadiazol-5-yl)sulfamoyl)-1,2,3,4-tetrahydroisoquinolin-5-yl)-5-(trifluoromethyl)phenyl)-1,1-dimethyl-1,2,3,6-tetrahydropyridin-1-ium hydroxide], the IC50 at Nav 1.7 [1] is 0.684 µM; against Nav 1.7 [2], 3.53 µM; at Nav 1.5 [4], more than 10 µM.
